From ChEMBL document CHEMBL1201862, “PubChem BioAssay data set” (2004)
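How tested: cells in 96-well plates exposed to compound for 48 hours at five concentrations. GI50 is the concentration that inhibits growth by half.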 Activity calls are given as the source filed them. Rule as the data show it: active = GI50 up to about 1.1 µM and inactive = higher.

Legend:
Experiment in all cases: growth of human tumour cells (NCI), 48 h
HT-29 = system: HT-29
CAKI-1 = system: CAKI-1
Malme-3M = system: Malme-3M
NCI-H226 = system: NCI-H226
RXF 393 = system: RXF 393
M14 = system: M14
SK-MEL-5 = system: SK-MEL-5
786-0 = system: 786-0
SF-268 = system: SF-268
KM12 = system: KM12
HOP-92 = system: HOP-92
UO-31 = system: UO-31
UACC-62 = system: UACC-62
HCT-116 = system: HCT-116

| Structure (SMILES) | GI50 (HT-29) | GI50 (CAKI-1) | GI50 (Malme-3M) | GI50 (NCI-H226) | GI50 (RXF 393) | GI50 (M14) | GI50 (SK-MEL-5) | GI50 (786-0) | GI50 (SF-268) | GI50 (KM12) | GI50 (HOP-92) | GI50 (UO-31) | GI50 (UACC-62) | GI50 (HCT-116) |
| --- | --- | --- | --- | --- | --- | --- | --- | --- | --- | --- | --- | --- | --- | --- |
| COc1cc(C(=O)CC2(O)C(=O)Nc3c(Cl)cc(Cl)cc32)ccc1O (stereo not given) | 29.4 µM (inactive) | 56.2 µM (inactive) | > 100 µM (inactive) | 40 µM (inactive) | 27.5 µM (inactive) | 66.7 µM (inactive) | 27.6 µM (inactive) | > 100 µM (inactive) | 43.8 µM (inactive) | 78.3 µM (inactive) | 23.8 µM (inactive) | 37.9 µM (inactive) |  |  |
| COCOCC/C=C/C=O | > 100 µM (inactive) |  | > 100 µM (inactive) |  | > 100 µM (inactive) | > 100 µM (inactive) | > 100 µM (inactive) | > 100 µM (inactive) | > 100 µM (inactive) | > 100 µM (inactive) | > 100 µM (inactive) | > 100 µM (inactive) | > 100 µM (inactive) | > 100 µM (inactive) |
| CN(C)CC(C)(C)C(=O)/C=C/c1ccccc1 | 15.8 µM (inactive) | 15.8 µM (inactive) | 11.6 µM (inactive) | 13.9 µM (inactive) | 11.9 µM (inactive) | 13.8 µM (inactive) | 16.2 µM (inactive) | 15.4 µM (inactive) |  | 14.1 µM (inactive) | 8.41 µM (inactive) | 11 µM (inactive) | 13.2 µM (inactive) | 13.5 µM (inactive) |
| CN(C)CCn1cnc2sc3ccccc3c21 | > 100 µM (inactive) | 95.3 µM (inactive) | > 100 µM (inactive) | 40.4 µM (inactive) | 82.8 µM (inactive) | > 100 µM (inactive) | > 100 µM (inactive) | > 100 µM (inactive) | > 100 µM (inactive) | > 100 µM (inactive) |  |  | > 100 µM (inactive) | > 100 µM (inactive) |
| CCCN(CCCC(NC(C)=O)C(=O)NCc1ccccc1)C(=O)NC (stereo not given) | > 100 µM (inactive) | > 100 µM (inactive) | > 100 µM (inactive) | > 100 µM (inactive) | > 100 µM (inactive) | > 100 µM (inactive) | > 100 µM (inactive) | > 100 µM (inactive) | > 100 µM (inactive) | > 100 µM (inactive) | > 100 µM (inactive) | > 100 µM (inactive) | > 100 µM (inactive) | > 100 µM (inactive) |
| COc1ccccc1NC(=O)C(CC(C(=O)Nc1ccccc1OC)/C(C)=N/Nc1ccc([N+](=O)[O-])cc1[N+](=O)[O-])/C(C)=N/Nc1ccc([N+](=O)[O-])cc1[N+](=O)[O-] (stereo not given) | > 100 µM (inactive) | 41 µM (inactive) | > 100 µM (inactive) | > 100 µM (inactive) |  | 40.4 µM (inactive) | 31.6 µM (inactive) | > 100 µM (inactive) | > 84.9 µM (inactive) | 58.5 µM (inactive) | 54.3 µM (inactive) | 27 µM (inactive) | > 100 µM (inactive) | > 59.3 µM (inactive) |
| CCN(C(=N)C#N)c1ccccc1 | > 89.7 µM (inactive) | > 100 µM (inactive) | > 100 µM (inactive) | > 100 µM (inactive) | > 100 µM (inactive) | > 100 µM (inactive) | > 100 µM (inactive) | > 41.9 µM (inactive) | > 100 µM (inactive) | > 100 µM (inactive) | > 100 µM (inactive) | > 100 µM (inactive) | > 72.3 µM (inactive) | > 60.4 µM (inactive) |
| O=c1c2ccccc2nc2n1-c1ccccc1SC2 | > 100 µM (inactive) | > 100 µM (inactive) | 37.8 µM (inactive) |  | 58.3 µM (inactive) | 50.5 µM (inactive) | 30.1 µM (inactive) | > 100 µM (inactive) | 60 µM (inactive) | 29.5 µM (inactive) | 55.1 µM (inactive) | 48.2 µM (inactive) | 33.7 µM (inactive) | 47.2 µM (inactive) |
| C=CC1(C)/C(=N\O)C(C)(CC)C(=O)N1O (stereo not given) | > 100 µM (inactive) | > 100 µM (inactive) | > 100 µM (inactive) |  | > 100 µM (inactive) | > 100 µM (inactive) | > 100 µM (inactive) | > 100 µM (inactive) | > 100 µM (inactive) | > 100 µM (inactive) | > 100 µM (inactive) | > 100 µM (inactive) | > 100 µM (inactive) | > 100 µM (inactive) |
| COc1cc(C)c2c(c1C)OC(=O)c1c(C)c(Cl)c(O)c(C=O)c1O2 | 20.4 µM (inactive) | 52.2 µM (inactive) | 15.5 µM (inactive) | 23.2 µM (inactive) |  | 18.4 µM (inactive) | 60.1 µM (inactive) | 10.4 µM (inactive) | 9.66 µM (inactive) | 15.4 µM (inactive) |  | 11.2 µM (inactive) | 15.7 µM (inactive) | 20.8 µM (inactive) |
| Cc1cc(C2CCCCC2)n(O)c(=O)c1 [CICLOPIROX OLAMINE] | 9.08 µM (inactive) |  | 15.7 µM (inactive) |  | 16.5 µM (inactive) | 14.2 µM (inactive) | 10.4 µM (inactive) | 9.48 µM (inactive) | 4.25 µM (inactive) | 4.66 µM (inactive) | 0.605 µM (active) | 6.32 µM (inactive) | 3.03 µM (inactive) | 3.7 µM (inactive) |
